Assay results from patent US20220347194A1, “METHODS AND COMPOSITIONS FOR TREATING PAIN AND OTHER EPH RECEPTOR-ASSOCIATED CONDITIONS” (THE BOARD OF REGENTS OF THE UNIVERSITY OF TEXAS SYSTEM, priority 2019, published 2022).

Columns and labels:
[1] = biological target: T1, EphB2 kinase domain (Homo sapiens, UniProt P29323); assay: Radiometric protein kinase assay (33PanQinase Activity Assay), EphB2
T1 sequence (P29323 621-884 limits assumed): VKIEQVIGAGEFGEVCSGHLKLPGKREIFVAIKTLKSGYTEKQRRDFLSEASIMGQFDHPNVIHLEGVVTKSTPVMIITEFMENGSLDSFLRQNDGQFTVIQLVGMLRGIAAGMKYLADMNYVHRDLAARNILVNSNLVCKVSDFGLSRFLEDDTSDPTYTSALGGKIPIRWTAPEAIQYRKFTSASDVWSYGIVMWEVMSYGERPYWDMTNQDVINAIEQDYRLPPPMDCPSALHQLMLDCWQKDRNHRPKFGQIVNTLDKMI
Description: (§2) Kinase domains were produced by ProQinase using human cDNAs to express recombinant GST/His-fusion proteins that were purified by affinity chromatography and determined to be enzymatically active by phosphorylation of a Poly (Glu, Tyr) substrate. The FDA compounds were assayed in 10 concentrations in the range from 1×10^−4 M to 3×10^−9 M for their ability to effect kinase activities. The final DMSO concentration in the reaction cocktails was 1% in all cases. Kinase assays were performed in 96-well FlashPlates™ from PerkinElmer (Boston, Mass., USA) in a 50 μl reaction volume. The reaction cocktail was pipetted in four steps in the following order: 20 μl of assay buffer (standard buffer), 5 μl of ATP solution (in H2O), 5 μl of test compound (in 10% DMSO), and 20 μl enzyme/substrate mix. […] The reaction cocktails were incubated at 30° C. for 60 minutes. The reaction was stopped with 50 μl of 2% (v/v) H3PO4, plates were aspirated and washed two times with 200 μl 0.9% (w/v) NaCl. Incorporation of ^33Pi was determined with a microplate scintillation counter (Microbeta, Wallac). All assays were performed with a BeckmanCoulter/SAGIAN™ Core System. The median value of the counts in column 1 (n=8) of each assay plate was defined as “low control”. This value reflects unspecific binding of radioactivity to the plate in the absence of a protein kinase but in the presence of the substrate. […] The residual activity (in %) for each well of a particular plate was calculated by using the following formula: Res. Activity (%)=100×[(cpm of compound−low control)/(high control−low control)] […]
(§3) For each kinase, the median value of the cpm of three wells with complete reaction cocktails, but without kinase, was defined as “low control” (n=3). This value reflects unspecific binding of radioactivity to the plate in the absence of protein kinase but in the presence of the substrate. […] The residual activity (in %) for each well of each row of a particular plate was calculated by using the following formula: Res. Activity (%)=100×[(cpm of compound−low control)/(high control−low control)]. […]

[2] = biological target: T2, EphB1 kinase domain (Homo sapiens, UniProt P54762); assay: Radiometric protein kinase assay (33PanQinase Activity Assay), EphB1; conditions: for inhibition of EphB1 kinase activity: concentrations up to 100 μM
T2 sequence (P54762 619-882 limits assumed): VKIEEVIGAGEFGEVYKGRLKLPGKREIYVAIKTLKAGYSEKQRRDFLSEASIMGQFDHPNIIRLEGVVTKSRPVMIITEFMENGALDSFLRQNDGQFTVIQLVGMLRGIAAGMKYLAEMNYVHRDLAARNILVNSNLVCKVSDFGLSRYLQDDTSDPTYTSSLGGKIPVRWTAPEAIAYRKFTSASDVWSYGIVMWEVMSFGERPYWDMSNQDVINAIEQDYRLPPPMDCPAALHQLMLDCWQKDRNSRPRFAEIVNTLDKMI
Description: (§4) Kinase domains were produced by ProQinase using human cDNAs to express recombinant GST/His-fusion proteins that were purified by affinity chromatography and determined to be enzymatically active by phosphorylation of a Poly (Glu, Tyr) substrate. The FDA compounds were assayed in 10 concentrations in the range from 1×10^−4 M to 3×10^−9 M for their ability to effect kinase activities. The final DMSO concentration in the reaction cocktails was 1% in all cases. Kinase assays were performed in 96-well FlashPlates™ from PerkinElmer (Boston, Mass., USA) in a 50 μl reaction volume. The reaction cocktail was pipetted in four steps in the following order: 20 μl of assay buffer (standard buffer), 5 μl of ATP solution (in H2O), 5 μl of test compound (in 10% DMSO), and 20 μl enzyme/substrate mix. […] The reaction cocktails were incubated at 30° C. for 60 minutes. The reaction was stopped with 50 μl of 2% (v/v) H3PO4, plates were aspirated and washed two times with 200 μl 0.9% (w/v) NaCl. Incorporation of ^33Pi was determined with a microplate scintillation counter (Microbeta, Wallac). All assays were performed with a BeckmanCoulter/SAGIAN™ Core System. The median value of the counts in column 1 (n=8) of each assay plate was defined as “low control”. This value reflects unspecific binding of radioactivity to the plate in the absence of a protein kinase but in the presence of the substrate. The median value of the counts in column 7 of each assay plate (n=8) was taken as the “high control”, i.e. full activity in the absence of any inhibitor. The difference between high and low control was taken as 100% activity. As part of the data evaluation the low control value from a particular plate was subtracted from the high control value as well as from all 80 “compound values” of the corresponding plate. The residual activity (in %) for each well of a particular plate was calculated by using the following formula: Res. Activity (%)=100×[(cpm of compound−low control)/(high control−low control)]
(§5) The fitting method used was a least-squares fit.
For each kinase, the median value of the cpm of three wells with complete reaction cocktails, but without kinase, was defined as “low control” (n=3). This value reflects unspecific binding of radioactivity to the plate in the absence of protein kinase but in the presence of the substrate. Additionally, for each kinase the median value of the cpm of three other wells with the complete reaction cocktail, but without any compound, was taken as the “high control”, i.e. full activity in the absence of any inhibitor (n=3). The difference between high and low control was taken as 100% activity for each kinase. As part of the data evaluation the low control of each row of a particular plate was subtracted from the high control value as well as from their corresponding “compound values”. The residual activity (in %) for each well of each row of a particular plate was calculated by using the following formula: Res. Activity (%)=100×[(cpm of compound−low control)/(high control−low control)]. […] The mathematical model used was “Sigmoidal response (variable slope)” with parameters “top” fixed at 100% and “bottom” at 0%.

[3] = biological target: T3, EphB4 kinase domain (Homo sapiens, UniProt P54760); assay: Radiometric protein kinase assay (33PanQinase Activity Assay), EphB4
T3 sequence (P54760 615-899 limits assumed): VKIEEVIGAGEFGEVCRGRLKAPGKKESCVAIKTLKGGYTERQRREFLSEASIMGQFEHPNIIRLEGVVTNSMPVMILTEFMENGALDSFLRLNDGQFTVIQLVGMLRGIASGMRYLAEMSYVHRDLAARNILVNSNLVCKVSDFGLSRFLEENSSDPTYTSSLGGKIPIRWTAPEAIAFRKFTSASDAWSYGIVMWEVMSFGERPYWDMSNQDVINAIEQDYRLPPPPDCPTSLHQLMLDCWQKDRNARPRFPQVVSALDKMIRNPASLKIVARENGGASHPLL
Description: as §2, §3

[4] = biological target: T4, EphB3 kinase domain (Homo sapiens, UniProt P54753); assay: Radiometric protein kinase assay (33PanQinase Activity Assay), EphB3
T4 sequence (P54753 633-896 limits assumed): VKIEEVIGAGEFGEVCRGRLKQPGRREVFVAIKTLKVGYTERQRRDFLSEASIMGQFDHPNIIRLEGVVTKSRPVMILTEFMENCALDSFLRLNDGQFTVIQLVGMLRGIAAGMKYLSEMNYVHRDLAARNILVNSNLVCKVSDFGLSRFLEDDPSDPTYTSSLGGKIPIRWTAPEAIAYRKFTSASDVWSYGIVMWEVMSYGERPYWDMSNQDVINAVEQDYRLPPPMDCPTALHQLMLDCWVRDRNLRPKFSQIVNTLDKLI
Description: as §4, §5
For each kinase, the median value of the cpm of three wells with complete reaction cocktails, but without kinase, was defined as “low control” (n=3). This value reflects unspecific binding of radioactivity to the plate in the absence of protein kinase but in the presence of the substrate. Additionally, for each kinase the median value of the cpm of three other wells with the complete reaction cocktail, but without any compound, was taken as the “high control”, i.e. full activity in the absence of any inhibitor (n=3). […] The residual activity (in %) for each well of each row of a particular plate was calculated by using the following formula: Res. Activity (%)=100×[(cpm of compound−low control)/(high control−low control)]. […]

[5] = tested on: Human glioblastoma (GBM) cells; assay: Glioblastoma cell migration; format: cell-based; conditions: 12.5, 25, 50, and 100 μM; after 24 hours
Description: Cell migration was tested after 24 hours.

[6] = tested on: Complete freund's adjuvant (CFA) Induced pain model; assay: Complete freund's adjuvant (CFA) Induced pain model (Hargreaves and Von Frey tests); format: in vivo, CD1 mice
Description: (§1) Animals. A total of 40 male outbred CD1 mice were obtained from Charles River Laboratories at 8 weeks of age. Mice were housed in the animal facility of UT southwestern Medical Center, with constant temperature (21-24° C.) and humidity (30-50%) with free access to standard animal feed and water. The room was kept on a 12/12 light/dark cycle, with white light (light cycle) on at 2400 hours and red lights (dark cycle) on at 1200 hours. All of the procedures were conducted with approval from the UT southwestern Medical Center Institutional Animal Care and Use Committee (IACUC Protocol No. 2017-102090). Ugo Basile® the original Plantar Test (Hargreaves Apparatus) was used for thermal stimulation, where infrared beam was adjusted to give an average paw withdrawal latency of about 10 s in wild type mice and cut-off time was set to 30 s to avoid tissue damage. Ugo Basile® Dynamic Plantar Aesthesiometer (DPA) for mechanical stimulation (Electronic Von Frey) were used for mechanical stimulation, where the force (grams) was set at 50 g to prevent tissue damage. Animals were placed in clear acrylic cubicles (22×16.5×14 cm) for at least one hour prior testing. The testing/recording was done every 5 minutes with no repetition for the same mouse. Blinded person(s) to the individual treatment assignments recorded true reflexes.
Complete freund's adjuvant (CFA) Induced pain model. […] A baseline was for detected for the mice behavior towards thermal hyperalgesia using Hargreaves Test and mechanical allodynia using Von Frey Test. The drugs were administered via gavage for three consecutive days before CFA injection. On the morning of the experiment (6 hours before CFA injection), the last dose of drugs was administered. CFA was injected in the right paw, while the left paw remained un-injected as control. The testing involved two stimulus thermal hyperalgesia using Hargreaves Test and mechanical allodynia using Von Frey Test at Days 1, 2, 3, and 5.

[7] = tested on: Capsaicin Induced pain model; assay: Capsaicin Induced pain model (Hargreaves and Von Frey tests); format: in vivo, CD1 mice; conditions: capsaicin-injected paw vs controls; Demeclocycline 17 mg/kg/day, DC 7 mg/kg/day, MCD 5 mg/kg/day, p.o
Description: as §1
Capsaicin Induced pain model. […]

[8] = tested at Days 1, 2, 3, and 5, P<0.001

Work on `CN(C)[C@@H]1C(O)=C(C(N)=O)C(=O)[C@@]2(O)C(O)=C3C(=O)c4c(O)ccc(Cl)c4[C@@](C)(O)[C@H]3C[C@@H]12` [chlortetracycline] yielded an IC50 [1] of 37 to 92 µM, an IC50 [2] of 44 µM and an IC50 [3] of 37 to 92 µM. It also gave an IC50 [4] of 55 µM.
With `CCC(=O)NCC[C@@H]1CCc2ccc3c(c21)CCO3` [ramelteon] the “inhibition of EphB1 kinase activity” value [2] was “failed to inhibit”.
For `NC(=O)C(c1ccccc1)(c1ccccc1)[C@@H]1CCN(CCc2ccc3c(c2)CCO3)C1` [darifenacin], the “inhibition of EphB1 kinase activity” value [2] was “failed to inhibit”.
In the case of `CN(C)[C@@H]1C(O)=C(C(N)=O)C(=O)[C@@]2(O)C(O)=C3C(=O)c4c(O)ccc(Cl)c4[C@@H](O)[C@H]3C[C@@H]12` [Demeclocycline, demeclocycline], the IC50 [1] is reported as 37 to 92 µM, the glioblastoma cell migration [5] is reported as “inhibited glioblastoma cell migration” and the IC50 [2] is reported as 39 µM. The IC50 [3] was 37 to 92 µM, the “paw withdrawal latency, thermal stimulus (Hargreaves)” value ([6]; injected paw vs controls, p.o) was “prolonged the paw withdrawal latency” and the “response to mechanical stimulus (von Frey)” value ([6]; injected paw vs controls, p.o) was “same behavior was observed”. For the same compound, the “time until which significant improvement for mechanical (tactile) allodynia was shown” value [6, 8] was 1 days, the “time until which significant improvement in paw withdrawal latency for thermal hyperalgesia was shown” value [6, 8] was at most 2 days and the IC50 [4] was 47 µM. For the same compound, the “influence on EphB3 catalytic activity” value ([4]; low nanomolar ranges (biphasic)) was “slightly elevated activity”, the “paw withdrawal latency, thermal stimulus (Hargreaves)” value [7] was “prolonged the paw withdrawal latency” and the “response to mechanical stimulus (von Frey)” value [7] was “same behavior was observed”.
Work on `CN(C)c1ccc(O)c2c1C[C@H]1C[C@H]3[C@H](N(C)C)C(O)=C(C(N)=O)C(=O)[C@@]3(O)C(O)=C1C2=O` [minocycline] yielded an IC50 [1] of 37 to 92 µM, an IC50 [2] of 56 µM and an IC50 [3] of 37 to 92 µM. For the same compound, the IC50 [4] was 92 µM.
